Test results from patent publication US12685735B2 (Foghorn Therapeutics Inc., priority 2020, dated 2026).

Tests used:
BRM = BRM (Homo sapiens, UniProt P51531); experiment: ATPase catalytic activity assay of BRM (ADP-Glo); type: biochemical; details: for IC50: read-out: BRM IC50 (μM)*
Outline: (§1)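 Two room-temperature incubations follow the reaction: 40 min to eliminate unused ATP, then 60 min to turn ADP into ATP driving luciferase light output. Activity is read as luminescence proportional to ADP formed.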

BRG-1 = BRG-1 (Homo sapiens, UniProt P51532); experiment: ATPase catalytic activity assay of BRG-1 (ADP-Glo); type: biochemical; details: ATPase catalytic activity, ADP-Glo; for IC50: read-out: BRG1 IC50 (μM)*; for Emax: read-out: BRG1 Max % Inhibition
Outline: as §1

Sequence of BRM (P51531 whole entry): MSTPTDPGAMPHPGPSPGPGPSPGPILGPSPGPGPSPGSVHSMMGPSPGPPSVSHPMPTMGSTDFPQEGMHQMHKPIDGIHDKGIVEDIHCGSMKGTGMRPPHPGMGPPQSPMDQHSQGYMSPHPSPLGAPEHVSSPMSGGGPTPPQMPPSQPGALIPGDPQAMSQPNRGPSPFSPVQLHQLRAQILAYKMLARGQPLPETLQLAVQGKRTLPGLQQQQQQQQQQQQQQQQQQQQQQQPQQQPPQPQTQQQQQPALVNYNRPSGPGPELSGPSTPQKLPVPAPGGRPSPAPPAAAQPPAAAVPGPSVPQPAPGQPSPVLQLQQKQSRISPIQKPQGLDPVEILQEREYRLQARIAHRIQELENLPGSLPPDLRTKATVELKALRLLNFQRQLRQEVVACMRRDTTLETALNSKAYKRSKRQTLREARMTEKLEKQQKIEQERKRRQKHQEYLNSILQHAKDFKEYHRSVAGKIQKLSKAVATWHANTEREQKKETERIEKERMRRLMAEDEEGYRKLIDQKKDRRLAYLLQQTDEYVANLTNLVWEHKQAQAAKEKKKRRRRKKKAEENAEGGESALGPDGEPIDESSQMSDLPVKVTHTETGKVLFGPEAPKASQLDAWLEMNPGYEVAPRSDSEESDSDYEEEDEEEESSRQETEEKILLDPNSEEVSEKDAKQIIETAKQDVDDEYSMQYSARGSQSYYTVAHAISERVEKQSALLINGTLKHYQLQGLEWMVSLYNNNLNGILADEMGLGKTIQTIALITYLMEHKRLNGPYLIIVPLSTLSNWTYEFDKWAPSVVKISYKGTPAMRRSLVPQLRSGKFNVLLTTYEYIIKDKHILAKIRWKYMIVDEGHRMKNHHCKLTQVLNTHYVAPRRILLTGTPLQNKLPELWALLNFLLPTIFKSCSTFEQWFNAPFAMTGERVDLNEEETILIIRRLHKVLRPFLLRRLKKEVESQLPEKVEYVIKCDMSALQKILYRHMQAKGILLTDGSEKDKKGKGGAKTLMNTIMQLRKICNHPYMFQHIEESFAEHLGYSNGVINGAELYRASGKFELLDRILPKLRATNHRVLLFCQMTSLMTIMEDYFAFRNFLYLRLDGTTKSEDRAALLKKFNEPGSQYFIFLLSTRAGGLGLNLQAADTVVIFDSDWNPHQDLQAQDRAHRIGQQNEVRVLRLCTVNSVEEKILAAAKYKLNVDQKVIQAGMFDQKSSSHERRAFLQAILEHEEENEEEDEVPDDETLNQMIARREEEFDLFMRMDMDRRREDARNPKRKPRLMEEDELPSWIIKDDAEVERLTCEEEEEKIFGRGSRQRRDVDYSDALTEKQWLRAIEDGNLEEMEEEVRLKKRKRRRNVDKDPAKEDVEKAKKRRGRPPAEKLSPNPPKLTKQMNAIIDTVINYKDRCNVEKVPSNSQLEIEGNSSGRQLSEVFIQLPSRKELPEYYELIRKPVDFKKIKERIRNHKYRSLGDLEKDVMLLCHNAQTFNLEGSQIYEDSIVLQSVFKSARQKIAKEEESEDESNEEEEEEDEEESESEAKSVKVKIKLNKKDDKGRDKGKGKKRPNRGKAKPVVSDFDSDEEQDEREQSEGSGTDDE
Sequence of BRG-1 (P51532 whole entry): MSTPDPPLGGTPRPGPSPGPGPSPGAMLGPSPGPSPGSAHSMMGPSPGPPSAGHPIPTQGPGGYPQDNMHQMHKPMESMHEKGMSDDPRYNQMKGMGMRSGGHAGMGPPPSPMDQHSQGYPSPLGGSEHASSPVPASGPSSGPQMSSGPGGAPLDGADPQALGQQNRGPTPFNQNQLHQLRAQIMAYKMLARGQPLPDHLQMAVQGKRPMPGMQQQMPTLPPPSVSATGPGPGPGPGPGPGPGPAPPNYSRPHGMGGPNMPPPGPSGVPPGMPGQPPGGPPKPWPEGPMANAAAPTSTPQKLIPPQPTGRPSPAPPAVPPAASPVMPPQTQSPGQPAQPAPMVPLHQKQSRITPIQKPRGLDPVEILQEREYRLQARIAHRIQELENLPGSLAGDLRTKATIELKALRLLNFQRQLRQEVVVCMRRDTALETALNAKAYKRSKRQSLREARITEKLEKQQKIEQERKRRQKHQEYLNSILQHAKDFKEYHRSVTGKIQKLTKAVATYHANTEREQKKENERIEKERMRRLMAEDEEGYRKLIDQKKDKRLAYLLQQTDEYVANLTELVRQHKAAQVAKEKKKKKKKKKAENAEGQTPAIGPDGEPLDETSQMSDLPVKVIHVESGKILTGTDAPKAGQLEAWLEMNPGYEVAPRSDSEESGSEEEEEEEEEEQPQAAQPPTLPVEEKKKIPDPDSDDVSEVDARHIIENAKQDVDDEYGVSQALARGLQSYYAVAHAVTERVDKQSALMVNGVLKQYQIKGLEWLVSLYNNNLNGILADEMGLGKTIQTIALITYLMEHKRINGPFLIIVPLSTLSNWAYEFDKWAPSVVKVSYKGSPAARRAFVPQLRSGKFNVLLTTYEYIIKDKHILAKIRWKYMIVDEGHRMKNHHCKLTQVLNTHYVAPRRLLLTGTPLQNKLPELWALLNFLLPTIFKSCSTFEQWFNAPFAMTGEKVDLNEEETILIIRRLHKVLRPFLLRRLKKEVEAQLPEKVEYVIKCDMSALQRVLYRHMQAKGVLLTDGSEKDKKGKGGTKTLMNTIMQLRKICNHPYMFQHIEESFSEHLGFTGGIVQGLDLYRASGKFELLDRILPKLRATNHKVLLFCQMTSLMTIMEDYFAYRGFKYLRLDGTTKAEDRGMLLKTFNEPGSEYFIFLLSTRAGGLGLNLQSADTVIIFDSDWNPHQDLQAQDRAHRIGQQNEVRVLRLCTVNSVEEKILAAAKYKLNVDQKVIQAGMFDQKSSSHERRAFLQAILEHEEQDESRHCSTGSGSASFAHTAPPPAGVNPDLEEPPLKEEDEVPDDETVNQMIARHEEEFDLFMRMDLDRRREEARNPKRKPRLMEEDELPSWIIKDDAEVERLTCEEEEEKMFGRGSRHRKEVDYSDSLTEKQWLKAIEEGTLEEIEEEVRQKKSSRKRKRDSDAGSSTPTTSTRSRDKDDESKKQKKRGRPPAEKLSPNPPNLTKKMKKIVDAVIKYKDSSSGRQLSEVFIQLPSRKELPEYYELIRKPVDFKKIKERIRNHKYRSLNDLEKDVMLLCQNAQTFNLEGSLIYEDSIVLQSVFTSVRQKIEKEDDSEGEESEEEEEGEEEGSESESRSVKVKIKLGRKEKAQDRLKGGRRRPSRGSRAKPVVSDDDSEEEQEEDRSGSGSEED

## C[C@@H]1CN(c2cccc(-c3csc(NC(=O)CNC(=O)c4ccc5c(c4)C(C)(C#N)CNC5)n3)c2)C[C@H](C)O1 (stereo partly drawn) [Compound 310, 4-cyano-N-(2-((4-(3-((cis)-2,6-dimethylmorpholino)phenyl)thiazol-2-yl)amino)-2-oxoethyl)-4-methyl-1,2,3,4-tetrahydroisoquinoline-6-carboxamide]
BRM
  BRM Max % Inhibition: >95%
  IC50: < 0.1 µM
BRG-1
  IC50: 0.1 to 1 µM
  Emax: > 95%

## C[C@@H]1CN(c2cccc(-c3csc(NC(=O)CNC(=O)c4ccc5c(c4)[C@]4(CCC[C@H]4O)CC5)n3)c2)C[C@H](C)O1 [Compound 256, (1S,2R)-N-(2-((4-(3-((cis)-2,6-dimethylmorpholino)phenyl)thiazol-2-yl)amino)-2-oxoethyl)-2-hydroxy-2′,3′-dihydrospiro[cyclopentane-1,1′-indene]-6′-carboxamide]
BRM
  BRM Max % Inhibition: >60%
  IC50: 1 to 5 µM
BRG-1
  IC50: > 5 µM
  Emax: < 30%

## C[C@@H]1CN(c2cccc(-c3csc(NC(=O)CNC(=O)c4ccc5c(c4)C4(CC4)COC5)n3)n2)C[C@H](C)O1 [Compound 406, N-(2-((4-(6-((cis)-2,6-dimethylmorpholino)pyridin-2-yl)thiazol-2-yl)amino)-2-oxoethyl)spiro[cyclopropane-1,4′-isochromane]-6′-carboxamide]
BRM
  BRM Max % Inhibition: >95%
  IC50: < 0.1 µM
BRG-1
  IC50: 0.1 to 1 µM
  Emax: > 95%

## CN1CCc2ccc(-c3csc(NC(=O)CNC(=O)c4ccc5c(c4)C(C)(CO)CC5)n3)cc2C1=O (stereo in doubt) [Compound 176, (R)-3-(hydroxymethyl)-3-methyl-N-(2-((4-(2-methyl-1-oxo-1,2,3,4-tetrahydroisoquinolin-7-yl)thiazol-2-yl)amino)-2-oxoethyl)-2,3-dihydro-1H-indene-5-carboxamide]
BRM
  BRM Max % Inhibition: >95%
  IC50: 0.1 to 1 µM
BRG-1
  IC50: 0.1 to 1 µM
  Emax: > 80%

## C[C@@H]1CN(c2cccc(-c3csc(NC(=O)CNC(=O)c4ccc5c(c4)[C@@](C)(CO)CC5)n3)n2)C[C@H](C)O1 [Compound 224, (3S)-N-[2-[[4-[6-[(cis)-2,6-dimethylmorpholin-4-yl]-2-pyridyl]thiazol-2-yl]amino]-2-oxo-ethyl]-3-(hydroxymethyl)-3-methyl-indane-5-carboxamide]
BRM
  BRM Max % Inhibition: >95%
  IC50: < 0.1 µM
BRG-1
  IC50: 0.1 to 1 µM
  Emax: > 95%

## C[C@@H]1CN(c2cccc(-c3csc(NC(=O)CNC(=O)c4ccc5c(c4)[C@](C)(F)COC5)n3)n2)C[C@H](C)O1 [Compound 409, (S)-N-(2-((4-(6-((cis)-2,6-dimethylmorpholino)pyridin-2-yl)thiazol-2-yl)amino)-2-oxoethyl)-4-fluoro-4-methylisochromane-6-carboxamide]
BRM
  BRM Max % Inhibition: >95%
  IC50: < 0.1 µM
BRG-1
  IC50: < 0.1 µM
  Emax: > 95%

## CC1(C#N)CCc2ccc(C(=O)NCC(=O)Nc3nc(-c4cccc(-c5ccncc5)c4)cs3)cc21 (single isomer, unassigned) [Compound 103]
BRM
  BRM Max % Inhibition: >95%
  IC50: < 0.1 µM
BRG-1
  BRG1 Max % Inhibition: >95%
  IC50: < 0.1 µM

## C[C@@H]1CN(c2cccc(-c3csc(NC(=O)CNC(=O)c4ccc5c(c4)[C@]4(CCO4)COC5)n3)n2)C[C@H](C)O1 [Compound 349, (R)-N-(2-((4-(6-((cis)-2,6-dimethylmorpholino)pyridin-2-yl)thiazol-2-yl)amino)-2-oxoethyl)spiro[isochromane-4,2′-oxetane]-6-carboxamide]
BRM
  BRM Max % Inhibition: >95%
  IC50: < 0.1 µM
BRG-1
  IC50: 0.1 to 1 µM
  Emax: > 95%

## Cc1cc(-c2cccc(-c3csc(NC(=O)CNC(=O)c4ccc5c(c4)[C@](C)(CO)CCC5)n3)n2)ncn1 [Compound 208, (R)-8-(hydroxymethyl)-8-methyl-N-(2-((4-(6-(6-methylpyrimidin-4-yl)pyridin-2-yl)thiazol-2-yl)amino)-2-oxoethyl)-5,6,7,8-tetrahydronaphthalene-2-carboxamide]
BRM
  BRM Max % Inhibition: >95%
  IC50: 0.1 to 1 µM
BRG-1
  IC50: 1 to 5 µM
  Emax: > 60%
